{"source": "patent US12653899B2", "about": "“Multi-targeted, tunable, sustained delivery of payloads to charged avascular tissues” (Massachusetts Institute of Technology, priority 2019, dated 2026)", "key": {"[1]": {"test_system": "human ankle cartilage explants", "experiment": "Aggrecan/sGAG biosynthesis rate (35S-sulfate incorporation) in human ankle cartilage explants", "assay_type": "cell-based", "conditions": "for biosynthesis rate of explants compared to the untreated control: single 39.2 nM dose (equivalent to 300 ng/ml free IGF-1), FIGS. 19A-19B; for sGAG biosynthesis rate: single 500 nM, 1 μM and 2 μM doses, Day 0 to Day 3, both ankle and knee cartilage; for elevated biosynthesis rate after single dose, up to Day 7 / elevated biosynthesis rate after single dose, up to Day 15: single dose not replenished during media changes, FIG. 12 (ankle and knee)", "method": "(§1) Cartilage was harvested from both ankles of a donor (Collins Grade 0). Cartilage explants were equilibrated in culture media for 3 days after harvest. […] These were cut down to 1 mm thickness and allowed to equilibrate for a further 2.5 days before experiments were set up. A dose response experiment and an uptake experiment were set up in parallel.\nSubsets of the experiment were terminated at 3 days and 7 days from the start of the experiment. Media changes were performed every 2 to 3 days. 3 doses of free +9 GFP were included as additional controls, which tests whether high doses of the drug delivery carrier has adverse effects on aggrecan biosynthesis rate.\n(§2) For the 3-day termination experiment, chondrocyte biosynthesis rate (primarily aggrecan synthesis) was measured between days 0 and 3 of the experiment using a 35S-sulfate radiolabel. For the 7-day experiment, this measurement was done between days 5 and 7. Statistics: 1-way ANOVA with post-hoc Tukey's HSD test.\nas §1, with “the ankle” for “both ankles”, “1).” for “0).”, “2” for “3”, “A 7-day” for “A”, “was” for “and an uptake experiment were”, “up.” for “up in parallel.”\nChondrocyte biosynthesis rate (primarily aggrecan synthesis) was measured between days 5 and 7 of the experiment using a 35S-sulfate radiolabel. Statistics: 1-way ANOVA with post-hoc Tukey's HSD test.\n(§3) Cartilage explants that were equilibrated in culture medium post-harvest were transferred to ultra-low attachment cell culture plates (Corning) for dose response experiments. All experiments were carried out in low glucose, serum free medium (same composition as equilibration medium). Previous studies studying the effects of IGF-1 on cartilage explants have used doses ranging from 10 ng/ml to 300 ng/ml. Based on these, 300 ng/ml (equivalent to 39.2 nM) of free recombinant human IGF-1 (PeproTech, Rocky Hill, NJ) was used as the positive control.\n(§4) Since each fusion protein had one IGF-1 domain, equivalent doses (39.2 nM) of these were tested. In addition to this, 500 nM, 1 μM and 2 μM doses of fusion proteins were also tested. In all cases, only a single dose of the fusion proteins was added at the start of the experiment, and media changes were carried out without fusion proteins once every 2 to 3 days thereafter. In contrast, continuous doses of free IGF-1 were used for the positive control. An untreated control group was also included in the experiments. Experiments were terminated at 3-day, 7-day and 15-day time points. Outcome measures included the biosynthesis rate of sulfated glycosaminoglycans (sGAG), explant metabolic rate, sGAG loss to the culture medium and the explant sGAG content at the end of the experiment.\n(§5) The metabolic rate of cartilage explants was measured using the Alamar Blue assay (ThermoFisher). Cartilage explants were incubated for 3 hours in a 1× solution of Alamar Blue dissolved in culture medium. At the end of the incubation period, the absorbance of the medium at 570 nm and 600 nm was measured using a microplate reader (Synergy H1 Hybrid Multi-Mode Microplate Reader, BioTek). These readings were used to calculate the percentage reduction of Alamar Blue, which is directly proportional to the explant metabolic rate. These values were first normalized by individual explant weights. Following this, the weight-normalized readings for the treatment groups were normalized by the weight-normalized mean value for the untreated controls. To measure the chondrocyte biosynthesis rate of sulfated glycosaminoglycans (sGAGs), cartilage explants were cultured in the presence of 10 μCi/mL 35S-sulfate radiolabel during the final two days of each experiment. […]"}, "[2]": {"test_system": "human knee cartilage explants", "experiment": "Aggrecan/sGAG biosynthesis rate (35S-sulfate incorporation) in human knee cartilage explants", "assay_type": "cell-based", "method": "(§6) Cartilage was harvested from the knee joint of a donor. Cartilage explants were equilibrated in culture media for 2 days after harvest. […] These were cut down to 1 mm thickness and allowed to equilibrate for a further 2 days before the experiment was set up. Subsets of the experiment were terminated at 3 days and 7 days from the start of the experiment. Media changes were performed every 2 to 3 days.\nas §2, with “7-day termination” for “7-day”\nas §6, with “for 3” for “for 2”, “further 3” for “further 2”\nas §3, §4\nas §5, with “experiment. Following this, the explants were washed with PBS with non-radioactive sulfate to wash out excess radiolabel, weighed and digested with proteinase K. A liquid scintillation counter (PerkinElmer) was used to measure the amount of radiolabel incorporated within the extracellular matrix of the tissues. Radiolabel incorporation data were normalized by the duration of exposure to radiolabel and by the wet weight of the explants (Li et al., Osteoarthritis and Cartilage 23(2):266-274 (2015)).” for “experiment.”"}, "[3]": {"conditions": "Experiment 1, knee, donor, single 500 nM dose, 3-day time point (days 0-3)"}, "[4]": {"conditions": "Experiment 2, knee, donor, single 2 μM dose, 3-day time point"}, "[5]": {"conditions": "Experiment 2, knee, single 1 μM dose, 7-day time point"}, "[6]": {"conditions": "Experiment 2, knee, single 2 μM dose, 7-day time point"}}}
{"substance": "(+9GFP)-(EAAAK)3-(IGF-1): fusion protein of +9 GFP and human IGF-1 with rigid (EAAAK)3 linker, SEQ ID NO: 8", "values": [{"measurement": "aggrecan biosynthesis rate compared to the untreated control", "setting": "[1]; Experiment 3A, ankle, all three single doses (500 nM, 1 μM, 2 μM), 7-day time point", "value": "statistically significantly higher"}, {"measurement": "biosynthesis rate of explants compared to the untreated control", "setting": "[1]", "value": "did not increase"}, {"measurement": "sGAG biosynthesis rate", "setting": "[1]", "value": "significant increase"}, {"measurement": "elevated biosynthesis rate after single dose, up to Day 7", "setting": "[1]", "value": "sustained up to Day 7"}, {"measurement": "elevated biosynthesis rate after single dose, up to Day 15", "setting": "[1]", "value": "could not maintain"}, {"measurement": "aggrecan biosynthesis rate compared to the untreated control", "setting": "[2]; [3]", "value": "not statistically significantly different"}, {"measurement": "aggrecan biosynthesis rate compared to the untreated control", "setting": "[2]; Experiment 2, knee, donor, single 1 μM dose, 3-day time point", "value": "statistically significantly higher"}, {"measurement": "aggrecan biosynthesis rate compared to the untreated control", "setting": "[2]; [4]", "value": "statistically significantly higher"}, {"measurement": "aggrecan biosynthesis rate compared to the untreated control", "setting": "[2]; [5]", "value": "statistically significantly higher"}, {"measurement": "aggrecan biosynthesis rate compared to the untreated control", "setting": "[2]; [6]", "value": "statistically significantly higher"}]}
{"substance": "(+9GFP)-(GGGGS)4-(IGF-1): fusion protein of +9 GFP and human IGF-1 with flexible (GGGGS)4 linker, SEQ ID NO: 7", "values": [{"measurement": "aggrecan biosynthesis rate compared to the untreated control", "setting": "[1]; Experiment 3A, ankle, donor, single 500 nM dose, 3-day time point", "value": "statistically significantly higher"}, {"measurement": "aggrecan biosynthesis rate compared to the untreated control", "setting": "[1]; Experiment 3A, ankle, single 500 nM dose, 7-day time point", "value": "statistically significantly higher"}, {"measurement": "aggrecan biosynthesis rate compared to the untreated control", "setting": "[1]; Experiment 3A, ankle, single 1 μM dose, 7-day time point", "value": "statistically significantly higher"}, {"measurement": "aggrecan biosynthesis rate compared to the untreated control", "setting": "[1]; Experiment 3A, ankle, single 2 μM dose, 3-day time point", "value": "statistically significantly higher"}, {"measurement": "aggrecan biosynthesis rate compared to the untreated control", "setting": "[1]; Experiment 4, ankle, donor, single 500 nM dose, days 5-7", "value": "statistically significantly higher"}, {"measurement": "aggrecan biosynthesis rate compared to the untreated control", "setting": "[1]; Experiment 4, ankle, donor, single 1 μM dose, days 5-7", "value": "statistically significantly higher"}, {"measurement": "biosynthesis rate of explants compared to the untreated control", "setting": "[1]", "value": "did not increase"}, {"measurement": "sGAG biosynthesis rate", "setting": "[1]", "value": "significant increase"}, {"measurement": "elevated biosynthesis rate after single dose, up to Day 7", "setting": "[1]", "value": "sustained up to Day 7"}, {"measurement": "elevated biosynthesis rate after single dose, up to Day 15", "setting": "[1]", "value": "could not maintain"}, {"measurement": "aggrecan biosynthesis rate compared to the untreated control", "setting": "[2]; [3]", "value": "significantly higher"}, {"measurement": "aggrecan biosynthesis rate compared to the untreated control", "setting": "[2]; Experiment 1, knee, donor, single 2 μM dose, 3-day time point", "value": "not statistically significantly different"}, {"measurement": "mean aggrecan biosynthesis rate at Day 7 versus Day 3", "setting": "[2]; Experiment 1, knee, single 500 nM and 2 μM doses on Day 0", "value": "the same as the rate on Day 3"}, {"measurement": "aggrecan biosynthesis rate compared to the untreated control", "setting": "[2]; Experiment 1, knee, single 500 nM dose, 7-day time point (days 5-7)", "value": "not statistically significantly different"}, {"measurement": "aggrecan biosynthesis rate compared to the untreated control", "setting": "[2]; Experiment 1, knee, single 2 μM dose, 7-day time point", "value": "not statistically significantly different"}, {"measurement": "aggrecan biosynthesis rate compared to the untreated control", "setting": "[2]; Experiment 2, knee, donor, single 500 nM dose, 3-day time point", "value": "statistically significantly higher"}, {"measurement": "aggrecan biosynthesis rate compared to the untreated control", "setting": "[2]; [4]", "value": "statistically significantly higher"}, {"measurement": "aggrecan biosynthesis rate compared to the untreated control", "setting": "[2]; [5]", "value": "statistically significantly higher"}, {"measurement": "aggrecan biosynthesis rate compared to the untreated control", "setting": "[2]; [6]", "value": "statistically significantly higher"}]}
{"substance": "IGF-1: free recombinant human IGF-1 (PeproTech), pro-anabolic growth factor used as the positive control", "values": [{"measurement": "aggrecan biosynthesis rate compared to the untreated control", "setting": "[1]; Experiment 3A, ankle, continuous 40 nM free IGF-1, 3-day time point", "value": "statistically significantly higher"}, {"measurement": "aggrecan biosynthesis rate compared to the untreated control", "setting": "[1]; Experiment 3A, ankle, continuous 40 nM free IGF-1, 7-day time point", "value": "statistically significantly higher"}, {"measurement": "aggrecan biosynthesis rate compared to the untreated control", "setting": "[1]; Experiment 4, ankle, continuous 40 nM free IGF-1, days 5-7", "value": "statistically significantly higher"}, {"measurement": "sulfate incorporation rate compared to the untreated control", "setting": "[1]; continuous 39.2 nM free IGF-1, FIG. 19A", "value": "significantly increased"}, {"measurement": "aggrecan biosynthesis rate compared to the untreated control", "setting": "[2]; Experiment 1, knee, donor, continuous 40 nM free IGF-1, 3-day time point", "value": "significantly higher"}, {"measurement": "aggrecan biosynthesis rate compared to the untreated control", "setting": "[2]; Experiment 1, knee, continuous 40 nM free IGF-1, 7-day time point", "value": "significantly higher"}, {"measurement": "aggrecan biosynthesis rate compared to the untreated control", "setting": "[2]; Experiment 2, knee, continuous 40 nM free IGF-1, 3-day time point", "value": "statistically significantly higher"}, {"measurement": "aggrecan biosynthesis rate compared to the untreated control", "setting": "[2]; Experiment 2, knee, continuous 40 nM free IGF-1, 7-day time point", "value": "statistically significantly higher"}]}
